We go through 3 compounds from ChEMBL document CHEMBL1201862, “PubChem BioAssay data set” (2004).

Experiment in all cases: inhibition of tumour cell growth, NCI panel, 48 h
For assay [1], the system named is CCRF-CEM.
Assay [2] deals with NCI-H460.
In assay [3] the test system is NCI-H226.
Assay [4] relates to RXF 393.
Assay [5] has as its system SF-539.
In assay [6] the test system is SF-268.
Assay [7] has as its system M14.
For assay [8], the system named is 786-0.
Assay [9] relates to K562.
In assay [10] the test system is OVCAR-4.
For assay [11], the system named is HCT-15.
For assay [12], the system named is SR.
Assay [13] deals with HT-29.
Assay [14] has as its system NCI-H23.
In assay [15] the test system is UACC-62.
Assay [16] has as its system OVCAR-3.
In assay [17] the test system is TK-10.
For assay [18], the system named is DU-145.
Assay [19] relates to OVCAR-5.
In assay [20] the test system is MOLT-4.

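Five concentrations, 48 hours, 96-well plates. GI50 marks 50% less growth.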 Active and inactive are the calls of the source. Cut-off read from the data, not from the text of the source: active = GI50 up to about 1.1 µM and inactive = higher.

On to `Cc1c(Cl)ccc2c1NC(=O)C2(O)CC(=O)c1ccc(Cl)cc1Cl` (stereo not given), for which the GI50 in [1] was 10.3 µM (inactive); in [2], > 50 µM (inactive); in assay [3] it was > 29.4 µM (inactive); in assay [4] it was 20.1 µM (inactive); in assay [5], 17.7 µM (inactive); in assay [6], > 50 µM (inactive). For the same compound, the GI50 in assay [7] was > 50 µM (inactive); in assay [8] it was 27.2 µM (inactive); in assay [9] it was 19.1 µM (inactive); in [10], > 50 µM (inactive); in [11], more than 50 µM; in assay [12], 0.264 µM (active). In addition, the GI50 in assay [13] was > 50 µM (inactive); in assay [14], > 47.1 µM (inactive); in [15], > 50 µM (inactive); in assay [16], > 46.7 µM (inactive); in assay [17], 30.5 µM (inactive); in [18], > 50 µM (inactive). The GI50 was > 50 µM (inactive) in assay [19] and 22.5 µM (inactive) in assay [20].
For `CC(C)OC(=O)Nc1cccc(Cl)c1` [CHLORPROPHAM], the GI50 in assay [1] was > 100 µM (inactive); in [2], 76.4 µM (inactive); in assay [3], > 100 µM (inactive); in [4], > 100 µM (inactive); in [5], > 100 µM (inactive); in [6], > 100 µM (inactive). Further, the GI50 in assay [7] was > 100 µM (inactive); in [8] it was > 100 µM (inactive); in assay [9] it was 89.9 µM (inactive); in assay [10], > 100 µM (inactive); in assay [11] it was 83.6 µM; in assay [12] it was > 100 µM (inactive). Moreover, the GI50 in assay [13] was 87.7 µM (inactive); in assay [14] it was > 100 µM (inactive); in assay [15], > 100 µM (inactive); in assay [16] it was > 100 µM (inactive); in assay [17], > 100 µM (inactive); in assay [18], > 100 µM (inactive). Besides, the GI50 in assay [19] and in assay [20] was > 100 µM (inactive) each time.
For `COCC1OC(OC2OCC3OC4(OCC(O)(C(C)OC)C5OCOC54)OC3C2OC)C(OC)C(O)C1OC1OC(C)C(OC)C(OC2OC(C)C3OC4(CC(O)C(OC5CC(OC6CC(C)([N+](=O)[O-])C(OC)C(C)O6)C(OC(=O)c6c(C)c(Cl)c(O)c(Cl)c6OC)C(C)O5)C(C)O4)OC3(C)C2O)C1O` (stereo not given), the GI50 in assay [1], in assay [2], in assay [3], in assay [4], in assay [5] and in [6] was > 100 µM (inactive) in each case. Besides, the GI50 in [7] was > 100 µM (inactive); in assay [8], > 100 µM (inactive); in assay [9], > 100 µM (inactive); in [10], > 100 µM (inactive); in assay [11], more than 100 µM; in assay [12] it was > 100 µM (inactive). Further, the GI50 in [13], in assay [14], in [15], in assay [16], in assay [17] and in [18] was > 100 µM (inactive) each time. Also, the GI50 in [19] and in assay [20] was > 100 µM (inactive) each time.
